# In patent publication US20260138961A1, “MODULATORS OF MITOCHONDRIAL DNA REPLICATION” (Pretzel Therapeutics, Inc., priority 2022, published 2026):
# Biological target: T1, POLγA:Y955C (Homo sapiens, UniProt P54098, Y955C)
# T1 sequence (P54098 1-1239 Y955C): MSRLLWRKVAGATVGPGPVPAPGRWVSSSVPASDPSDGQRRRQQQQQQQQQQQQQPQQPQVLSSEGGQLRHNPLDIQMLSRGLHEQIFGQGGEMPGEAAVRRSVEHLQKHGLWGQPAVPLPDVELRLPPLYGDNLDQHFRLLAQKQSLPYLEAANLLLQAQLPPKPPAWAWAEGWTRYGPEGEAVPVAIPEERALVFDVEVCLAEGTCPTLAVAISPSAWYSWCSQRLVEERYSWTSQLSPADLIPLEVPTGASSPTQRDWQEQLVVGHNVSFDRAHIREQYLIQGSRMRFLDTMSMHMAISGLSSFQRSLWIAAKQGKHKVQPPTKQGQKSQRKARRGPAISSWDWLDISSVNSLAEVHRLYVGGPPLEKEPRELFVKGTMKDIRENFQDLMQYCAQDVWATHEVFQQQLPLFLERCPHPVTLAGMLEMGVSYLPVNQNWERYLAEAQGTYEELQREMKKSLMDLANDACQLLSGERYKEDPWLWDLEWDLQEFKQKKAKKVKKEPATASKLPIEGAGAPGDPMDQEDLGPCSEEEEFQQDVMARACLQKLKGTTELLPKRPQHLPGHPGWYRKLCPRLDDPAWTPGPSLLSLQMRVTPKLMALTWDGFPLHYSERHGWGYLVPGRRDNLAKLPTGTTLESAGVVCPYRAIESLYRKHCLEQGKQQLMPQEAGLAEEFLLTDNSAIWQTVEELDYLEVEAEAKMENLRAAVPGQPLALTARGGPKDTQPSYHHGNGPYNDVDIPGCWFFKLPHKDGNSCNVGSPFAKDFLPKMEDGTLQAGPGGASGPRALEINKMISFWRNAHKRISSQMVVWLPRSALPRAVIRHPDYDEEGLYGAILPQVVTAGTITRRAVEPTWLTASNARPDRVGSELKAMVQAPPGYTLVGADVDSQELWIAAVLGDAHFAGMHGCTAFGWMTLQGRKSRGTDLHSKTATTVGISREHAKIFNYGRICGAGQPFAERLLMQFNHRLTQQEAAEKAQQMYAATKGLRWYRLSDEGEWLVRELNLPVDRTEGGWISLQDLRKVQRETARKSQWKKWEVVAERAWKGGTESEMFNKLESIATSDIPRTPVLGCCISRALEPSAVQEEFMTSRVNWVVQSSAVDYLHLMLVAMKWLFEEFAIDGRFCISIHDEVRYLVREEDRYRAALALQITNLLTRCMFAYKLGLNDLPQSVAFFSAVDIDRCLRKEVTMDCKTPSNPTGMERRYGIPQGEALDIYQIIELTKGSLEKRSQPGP
# T1 sequence (Q9UHN1 1-485 partner): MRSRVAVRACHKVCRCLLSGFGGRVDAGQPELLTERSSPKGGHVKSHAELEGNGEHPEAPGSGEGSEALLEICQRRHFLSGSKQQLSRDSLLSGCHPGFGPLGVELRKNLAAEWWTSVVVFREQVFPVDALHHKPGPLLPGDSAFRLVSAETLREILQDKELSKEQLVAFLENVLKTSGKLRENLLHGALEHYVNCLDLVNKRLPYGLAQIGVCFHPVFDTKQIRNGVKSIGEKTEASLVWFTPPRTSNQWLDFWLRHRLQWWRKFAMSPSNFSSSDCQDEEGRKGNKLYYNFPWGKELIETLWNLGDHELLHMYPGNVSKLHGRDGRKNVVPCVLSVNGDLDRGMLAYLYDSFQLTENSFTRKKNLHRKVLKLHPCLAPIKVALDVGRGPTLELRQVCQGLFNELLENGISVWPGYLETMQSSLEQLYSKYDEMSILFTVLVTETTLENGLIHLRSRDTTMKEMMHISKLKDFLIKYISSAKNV
# Test: DNA polymerization assay, POLγA:Y955C mutant
# Type: biochemical
# Conditions: stimulation of polymerase activity, primed M13mp18 ssDNA, 37° C. 2 hours
# Experimental: DNA Polymerization Assay to Monitor Effects on Human Wildtype POLγ and Four Disease-Causing Mutant Variants of Human POLγ.
# The ability of small molecules to stimulate the polymerase activity of POLγ was analyzed in a quantitative fluorescence SYBR Green I assay with fluorescence intensity (FI) readout.
# In the presence of dNTPs, wild type human POLγ and mutant derivatives thereof were incubated with single-stranded, circular M13mp18 ssDNA hybridized to a short DNA oligonucleotide that functions as a primer for initiation of DNA synthesis. POLγ and mutant derivatives thereof will extend the primer and use the M13mp18 molecule as a template to synthesize long stretches of double-stranded DNA. SYBR Green I, which is a double-stranded DNA-binding dye, was used to quantify formation of double-stranded DNA in the reaction. When bound to double-stranded DNA, SYBR Green I fluorescence increases by up to 100-fold.
# The assay was performed in the 384-well plate format. Upon addition of compounds, changes in double-stranded DNA synthesis activity can be monitored by following effects on fluorescent intensity.
# The reactions also contained the accessory POLγB subunit, and the human mitochondrial single-stranded DNA binding protein (mtSSB).
# The DNA template mixture used in the assay contained 0.5 nM primed M13 mp18 ssDNA, 400 nM mtSSB, 0.1 mM Tris-HCl (pH 8.0), 0.1 mM dNTP, 10 mM MgCl2, 0.1 mg/mL BSA, 1 mM TCEP solution, and 0.02% Triton X-100. The DNA template mixture for the wild type protein contained either 100 μM dNTP, 1 μM dNTP, or 0.1 μM dNTP, designated in Table 2 as 100 μM, 1 μM, and 0.1 μM, respectfully.
# Microplates with compounds (0.1 μL in each well) to be tested in the assay were prepared from 10 mM compound stocks in 100% DMSO, and equal amounts of DMSO without any compound were added to positive and negative control wells.
# The protein mixture was dispensed (5 μL into each well) into compound plates and incubated at 37° C. for 15 minutes. After incubation, 5 μL of the DNA template mixture was dispensed into each well. The plates were then incubated at 37° C. for 2 hours.
# During incubation, a combined stop buffer and detection reagent solution was prepared. The buffer contained 25 mM EDTA (pH 8.0), 0.02% Triton X-100, and SYBR Green I [Invitrogen] diluted 10,000× (for fluorescent readout). EDTA will stop the enzymatic reaction by chelating magnesium ions.
row,Compound,AC50 [nM]
1,"Cc1cc(S(=O)(=O)Nc2cccc(C(=O)N(C)C(C)CO)c2)c(C)cc1Cl (single isomer, unassigned) [Example 14, 3-((4-chloro-2,5-dimethylphenyl)sulfonamido)-N-(1-hydroxypropan-2-yl)-N-methylbenzamide]",2000
2,"Cc1cc(S(=O)(=O)Nc2cc(F)cc(C(=O)N3CCC[C@H]3C)c2)c(C)cc1Cl [Example 13, (R)-4-chloro-N-(3-fluoro-5-(2-methylpyrrolidine-1-carbonyl)phenyl)-2,5-dimethylbenzenesulfonamide]",2000
3,"Cc1cc(S(=O)(=O)Nc2cccc(-c3nccs3)c2)c(C)cc1Cl [Example 16, 4-chloro-2,5-dimethyl-N-(3-(thiazol-2-yl)phenyl)benzenesulfonamide]",800
4,"Cc1cc(S(=O)(=O)Nc2cccc(-c3ncco3)c2)c(C)cc1Cl [Example 17, 4-chloro-2,5-dimethyl-N-(3-(oxazol-2-yl)phenyl)benzenesulfonamide]",800
5,"Cc1cc(S(=O)(=O)Nc2cccc(-c3ccn(C)n3)c2)c(C)cc1Cl [Example 18, 4-chloro-2,5-dimethyl-N-(3-(1-methyl-1H-pyrazol-3-yl)phenyl)benzenesulfonamide]",3000
6,"Cc1cc(S(=O)(=O)Nc2cccc(-c3nccn3C)c2)c(C)cc1Cl [Example 19, 4-chloro-2,5-dimethyl-N-(3-(1-methyl-1H-imidazol-2-yl)phenyl)benzenesulfonamide]",500
7,"Cc1cc(S(=O)(=O)Nc2cccc(-c3ncc(C#N)s3)c2)c(C)cc1Cl [Example 96, 4-chloro-N-(3-(5-cyanothiazol-2-yl)phenyl)-2,5-dimethylbenzenesulfonamide]",50000
8,"Cc1cnc(-c2ccc(C)c(NS(=O)(=O)c3cc(C)c(Cl)cc3C)c2)s1 [Example 98, 4-chloro-2,5-dimethyl-N-(2-methyl-5-(5-methylthiazol-2-yl)phenyl)benzenesulfonamide]",> 10000
9,"Cc1cnc(-c2ccc(Cl)c(NS(=O)(=O)c3cc(C)c(Cl)cc3C)c2)s1 [Example 102, 4-chloro-N-(2-chloro-5-(5-methylthiazol-2-yl)phenyl)-2,5-dimethylbenzenesulfonamide]",> 100000
10,"Cc1cnc(-c2cc(NS(=O)(=O)c3cc(C)c(Cl)cc3C)ccc2C)s1 [Example 103, 4-chloro-2,5-dimethyl-N-(4-methyl-3-(5-methylthiazol-2-yl)phenyl)benzenesulfonamide]",9000
11,"Cc1cc(S(=O)(=O)Nc2ccc3c(c2)CC(=O)N3)c(C)cc1Cl [Example 185, 4-chloro-2,5-dimethyl-N-(2-oxoindolin-5-yl)benzenesulfonamide]",2000
12,"(R)-2,5-dimethyl-N-(3-(3-methylmorpholine-4-carbonyl)phenyl)benzenesulfonamide [Example 1]",2000

# Continued, values first:
row,AC50 [nM],Compound
1,1000,"Cc1ccc(C)c(S(=O)(=O)Nc2cccc(C(=O)N3CCCCC3C#N)c2)c1 (centres unmarked) [Example 2, N-(3-(2-cyanopiperidine-1-carbonyl)phenyl)-2,5-dimethylbenzenesulfonamide]"
2,5000,"Cc1ccc(C)c(S(=O)(=O)Nc2cccc(C(=O)N3CCCCC3)c2)c1 [Example 3, 2,5-dimethyl-N-(3-(piperidine-1-carbonyl)phenyl)benzene sulfonamide]"
3,11000,"Cc1ccc(C)c(S(=O)(=O)Nc2cccc(C(=O)NCC3CC3)c2)c1 [Example 4, N-(cyclopropylmethyl)-3-((2,5-dimethylphenyl)sulfonamido)benzamide]"
4,3000,"Cc1ccc(C)c(S(=O)(=O)Nc2cccc(C(=O)N3CCCC[C@H]3C)c2)c1 [Example 5, (R)-2,5-dimethyl-N-(3-(2-methylpiperidine-1-carbonyl)phenyl)benzenesulfonamide]"
5,5000,"Cc1ccc(C)c(S(=O)(=O)Nc2cccc(C(=O)N3CCCC[C@@H]3C)c2)c1 [Example 6, (S)-2,5-dimethyl-N-(3-(2-methylpiperidine-1-carbonyl)phenyl)benzenesulfonamide]"
6,1000,"Cc1ccc(C)c(S(=O)(=O)Nc2cccc(C(=O)N3CCOCC3C#N)c2)c1 (centres unmarked) [Example 7, N-(3-(3-cyanomorpholine-4-carbonyl)phenyl)-2,5-dimethylbenzenesulfonamide]"
7,3000,"Cc1ccc(C)c(S(=O)(=O)Nc2cccc(C(=O)N[C@@H](C)C3CC3)c2)c1 [Example 8, (S)-N-(1-cyclopropylethyl)-3-((2,5-dimethylphenyl)sulfonamido)benzamide]"
8,2000,"Cc1cc(S(=O)(=O)Nc2cccc(C(=O)N3CCCC[C@H]3C)c2)c(C)cc1Cl [Example 9, (R)-4-chloro-2,5-dimethyl-N-(3-(2-methylpiperidine-1-carbonyl)phenyl)benzenesulfonamide]"
9,400,"Cc1cc(S(=O)(=O)Nc2cccc(C(=O)N3CCC[C@H]3C)c2)c(C)cc1Cl [Example 10, (R)-4-chloro-2,5-dimethyl-N-(3-(2-methylpyrrolidine-1-carbonyl)phenyl)benzenesulfonamide]"
10,4000,"Cc1cc(S(=O)(=O)Nc2cccc(C(=O)NCc3ccccc3)c2)c(C)cc1Cl [Example 11, N-benzyl-3-((4-chloro-2,5-dimethylphenyl)sulfonamido)benzamide]"
11,2000,"Cc1cc(S(=O)(=O)Nc2cccc(C(=O)N(C)C)c2)c(C)cc1Cl [Example 12, 3-((4-chloro-2,5-dimethylphenyl)sulfonamido)-N,N-dimethylbenzamide]"
